# In patent US7919101B2 (priority 2008, dated 2011):
# pEC50: −log10 of the molar value. Like-named read-outs stand apart in the source and are kept apart here. Residues, ends and D or L forms follow the SMILES beside them.
# What was measured:
# [1] = tested on: HIV-1 93IN101 (subtype C, R5)
# Method: Inhibitory activity of fusion/entry inhibitors on infection by a primary HIV-1 isolate was determined as previously described (Jiang S et al. Antimicrob Agents Chemother 48:4349-4359, 2004). Peripheral blood mononuclear cells (PBMCs) were isolated from the blood of healthy donors by standard density gradient centrifugation using Histopaque-1077 (Sigma). The cells were plated in 75 cm^2 plastic flasks and incubated at 37° C. for 2 hrs. The nonadherent cells were collected and resuspended at 5×10^6 in 10 ml RPMI-1640 medium containing 10% FBS, 5 μg/ml PHA (phytohemagglutinin) and 100 U/ml IL-2 (Sigma), followed by incubation at 37° C. for 3 days. The PHA-stimulated cells were infected with a primary HIV-1 isolates at 0.01 MOI in the absence or presence of a compound at graded concentrations. Culture media were changed every 3 days. The supernatants were collected 7 days post-infection and tested for p24 antigen by ELISA as described above. The percent inhibition of p24 production and EC50 values were calculated as described above.
# (§1) 4. Synergy analysis. […] In all analyses, HIV fusion/entry inhibitors were assumed to act noncompetitively, which led to a more conservative estimate of synergy. CI values<1 and >1 indicate synergy and antagonism, respectively. Dose reductions were calculated as the compound concentrations required for inhibition of HIV-1 replication when the compound was used alone and in combination. The statistic analysis was performed by the One-Way Analysis of Variance (One-Way ANOVA) method using Origin 6.1 software.
# [2] = tested on: HIV-1 BaL (subtype B, R5)
# Method: (§2) 2. Inhibition of HIV infection as measured by luciferase assay. The inhibitory activity of fusion/entry inhibitors on HIV infection in TZM-bl cells was determined by using a luciferase assay (Wei X et al. Antimicrob. Agents Chemother. 46:1896-1905, 2002). Briefly, 50 μl of a compound at graded concentration in triplicate were incubated with an equal volume of an HIV-1 isolate at 0.01 multiplicity of infection (MOI) at 37° C. for 30 min, followed by addition of the mixture to 100 μl TZM-bl cells (1×10^5/ml) that were pre-cultured in a 96-well plate at 37° C. overnight. After further culture at 37° C. for 3 days, the cells were harvested and lyzed with 50 μl lysing reagent. The luciferase activity was analyzed using a luciferase kit (Promega Corp.) and a luminometer (Model: Ultra […], Tecan) according to the manufacture's instruction. The percent inhibition of cell fusion by a compound as well as EC50 and EC90 values were calculated using the software CalcuSyn.
# (§3) 3. Inhibition of HIV replication as measured by p24 antigen production. The inhibitory activity of fusion/entry inhibitors on HIV-1 infection as measured by p24 antigen production was determined as previously described (Zhao Q et al. AIDS Res Hum Retroviruses 18:989-997, 2002). In brief, 1×10^4 MT-2 cells were infected with an HIV-1 strain (100 TCID50) in 200 μl RPMI 1640 medium containing 10% FBS in the presence or absence of testing compounds at graded concentrations overnight. Then the culture supernatants were removed and fresh media containing no testing compounds were added. On the fourth day post-infection, 100 μl of culture supernatants were collected from each well, mixed with equal volumes of 5% Triton X-100 and assayed for p24 antigen, which was quantitated by ELISA. Briefly, wells of polystyrene plates were coated with HIV immunoglobulin (HIVIG, prepared from plasma of HIV-seropositive donors with high neutralizing titers against HIV-1IIIB), in 0.085 M carbonate-bicarbonate buffer (pH 9.6) at 4° C. overnight, followed by washes with washing buffer (0.01 M PBS containing 0.05% Tween-20) and blocking with PBS containing 1% dry fat-free milk. Virus lysates were added to the wells and incubated at 37° C. for 1 hr. […] Reactions were terminated by addition of 1N H2SO4. Absorbance at 450 nm was recorded in an ELISA reader (Ultra 384, TECAN). Recombinant protein p24, purchased from US Biological, was included for establishing standard dose response curves. Each sample was tested in triplicate. The percentage of inhibition of p24 production was calculated as previously described (Neurath A R et al. BMC Infect Dis 2:6, 2002).
# as §1
# [3] = tested on: HIV-1 IIIB (subtype B, X4)
# Method: as §2, §3, §1
# [4] = tested on: HIV-1 NL4-3(36G)V38A/N42D
# Method: as §2, §3, §1
# HIV-1 NL4-3(36G)V38A = tested on: HIV-1 NL4-3(36G)V38A
# Method: as §2, §3, §1
# [5] = tested on: HIV-1 NL4-3(36G)V38E/N42S
# Method: as §2, §3, §1
# [6] = tested on: viruses that are resistant to T-20; conditions: viruses resistant to T-20; cited from earlier work
# [7] = cited from earlier work
# [8] = 93IN101, T-20+T-1249+T-1144 4:1:1
# [9] = 93IN101, T-20 combined with T-1144
# [10] = read-out: EC50 alone, 93IN101 (C, R5) primary isolate, peptide alone
# [11] = read-out: EC50 alone, Bal (B, R5), peptide alone
# [12] = IIIB, T-20+T-1249+T-1144 16:4:1
# [13] = IIIB, T-20 combined with T-1144
# [14] = read-out: EC50 alone, IIIB (B, X4), peptide alone
# [15] = read-out: EC50 alone, peptide alone
# [16] = read-out: EC50 in mixture, T-20+T-1249+T-1144 80:1:1
# [17] = read-out: EC50 in mixture, T-20 combined with T-1144, ratios 80:1:1
# [18] = read-out: EC50 in mixture, T-20 combined with T-1249, ratios 80:1:1
compound,measurement,setting,value
CC[C@H](C)[C@H](NC(=O)[C@H](C)NC(=O)[C@H](CCCNC(=N)N)NC(=O)[C@H](CC(=O)O)NC(=O)[C@H](Cc1c[nH]c2ccccc12)NC(=O)[C@H](C)NC(=O)[C@H](CCC(=O)O)NC(=O)[C@H](Cc1c[nH]c2ccccc12)NC(=O)[C@@H](NC(=O)[C@@H](NC(C)=O)[C@@H](C)O)[C@@H](C)O)C(=O)N[C@@H](C)C(=O)N[C@@H](CCC(=O)O)C(=O)N[C@@H](Cc1ccc(O)cc1)C(=O)N[C@@H](C)C(=O)N[C@@H](C)C(=O)N[C@@H](CCCNC(=N)N)C(=O)N[C@H](C(=O)N[C@@H](CCC(=O)O)C(=O)N[C@@H](C)C(=O)N[C@@H](CC(C)C)C(=O)N[C@@H](CC(C)C)C(=O)N[C@@H](CCCNC(=N)N)C(=O)N[C@@H](C)C(=O)N[C@@H](CC(C)C)C(=O)N[C@@H](CCC(N)=O)C(=O)N[C@@H](CCC(=O)O)C(=O)N[C@@H](CCC(N)=O)C(=O)N[C@@H](CCC(N)=O)C(=O)N[C@@H](CCC(=O)O)C(=O)N[C@@H](CCCCN)C(=O)N[C@@H](CC(N)=O)C(=O)N[C@@H](CCC(=O)O)C(=O)N[C@@H](C)C(=O)N[C@@H](C)C(=O)N[C@@H](CC(C)C)C(=O)N[C@@H](CCCNC(=N)N)C(=O)N[C@@H](CCC(=O)O)C(=O)N[C@@H](CC(C)C)C(N)=O)[C@@H](C)CC [T-1144] (Ac-TTWEAWDRAIAEYAARIEALLRALQEQQEKNEAALREL-NH2; N-terminus and C-terminus assumed),Dose reduction,[1]; [8],24.17 fold
same,Dose reduction,[1]; [9],14.46 fold
same,pEC50,[1]; [10],7.81
same,Dose reduction,"[2]; Bal, T-20+T-1249+T-1144 2:1:1",209.00 fold
same,Dose reduction,"[2]; Bal, T-20 combined with T-1144",19.90 fold
same,pEC50,[2]; [11],8.38
same,Dose reduction,[3]; [12],99.00 fold
same,Dose reduction,[3]; [13],7.98 fold
same,pEC50,[3]; [14],8.31
same,Dose reduction,[4]; T-20+T-1249+T-1144 80:1:1,9.33 fold
same,Dose reduction,[4]; T-20 combined with T-1144,1.82 fold
same,pEC50,[4]; [15],8.34
same,Dose reduction,HIV-1 NL4-3(36G)V38A; T-20+T-1249+T-1144 80:1:1,37.60 fold
same,Dose reduction,HIV-1 NL4-3(36G)V38A; T-20 combined with T-1144,16.35 fold
same,pEC50,HIV-1 NL4-3(36G)V38A; [15],8.42
same,Dose reduction,[5]; T-20+T-1249+T-1144 3000:200:1,37.21 fold
same,Dose reduction,[5]; T-20 combined with T-1144,4.17 fold
same,pEC50,[5]; [15],8.28
same,activity relative to T-20,[6],thousands fold more active than T-20
same,pharmacokinetic properties improved,[7]; in vivo,up to 100 fold
enfuvirtide,Dose reduction,[1]; [8],15.70 fold
same,Dose reduction,[1]; [9],9.30 fold
same,Dose reduction,"[1]; 93IN101, T-20 combined with T-1249",10.90 fold
same,pEC50,[1]; [10],7.40
same,pEC50,"[1]; read-out: EC50 in mixture, 93IN101, T-20+T-1249+T-1144 4:1:1",8.60
same,pEC50,"[1]; read-out: EC50 in mixture, 93IN101, T-20 combined with T-1144, ratios 4:1:1",8.37
same,pEC50,"[1]; read-out: EC50 in mixture, 93IN101, T-20 combined with T-1249, ratios 4:1:1",8.44
same,Dose reduction,"[2]; Bal, T-20+T-1249+T-1144 2:1:1",280.67 fold
same,Dose reduction,"[2]; Bal, T-20 combined with T-1144",20.05 fold
same,Dose reduction,"[2]; Bal, T-20 combined with T-1249",11.53 fold
same,pEC50,[2]; [11],8.07
same,pEC50,"[2]; read-out: EC50 in mixture, Bal, T-20+T-1249+T-1144 2:1:1",10.52
same,pEC50,"[2]; read-out: EC50 in mixture, Bal, T-20 combined with T-1144, ratios 2:1:1",9.38
same,pEC50,"[2]; read-out: EC50 in mixture, Bal, T-20 combined with T-1249, ratios 2:1:1",9.14
same,Dose reduction,[3]; [12],71.04 fold
same,Dose reduction,[3]; [13],5.11 fold
same,Dose reduction,"[3]; IIIB, T-20 combined with T-1249",3.32 fold
same,pEC50,[3]; [14],7.30
same,pEC50,"[3]; read-out: EC50 in mixture, IIIB, T-20+T-1249+T-1144 16:4:1",9.15
same,pEC50,"[3]; read-out: EC50 in mixture, IIIB, T-20 combined with T-1144, ratios 16:4:1",8.01
same,pEC50,"[3]; read-out: EC50 in mixture, IIIB, T-20 combined with T-1249, ratios 16:4:1",7.82
same,Dose reduction,[4]; T-20+T-1249+T-1144 80:1:1,67.90 fold
same,Dose reduction,[4]; T-20 combined with T-1144,13.17 fold
same,Dose reduction,[4]; T-20 combined with T-1249,11.56 fold
same,pEC50,[4]; [15],5.58
same,pEC50,[4]; [16],7.41
same,pEC50,[4]; [17],6.70
same,pEC50,[4]; [18],6.64
same,Dose reduction,HIV-1 NL4-3(36G)V38A; T-20+T-1249+T-1144 80:1:1,37.76 fold
same,Dose reduction,HIV-1 NL4-3(36G)V38A; T-20 combined with T-1144,16.78 fold
same,Dose reduction,HIV-1 NL4-3(36G)V38A; T-20 combined with T-1249,23.03 fold
same,pEC50,HIV-1 NL4-3(36G)V38A; [15],6.50
same,pEC50,HIV-1 NL4-3(36G)V38A; [16],8.08
same,pEC50,HIV-1 NL4-3(36G)V38A; [17],7.73
same,pEC50,HIV-1 NL4-3(36G)V38A; [18],7.87
same,Dose reduction,[5]; T-20+T-1249+T-1144 3000:200:1,24.12 fold
same,Dose reduction,[5]; T-20 combined with T-1144,2.64 fold
same,Dose reduction,[5]; T-20 combined with T-1249,13.51 fold
same,pEC50,[5]; [15],5.00
same,pEC50,"[5]; read-out: EC50 in mixture, T-20+T-1249+T-1144 3000:200:1",6.39
same,pEC50,"[5]; read-out: EC50 in mixture, T-20 combined with T-1144, ratios 3000:200:1",5.43
same,pEC50,"[5]; read-out: EC50 in mixture, T-20 combined with T-1249, ratios 3000:200:1",6.14
same,half-life in vivo,[7]; in the blood,about 2 hours
